From patent publication US5442064A, “Carboxylic acid derivatives, pharmaceutical compositions containing these compounds and processes for preparing them” (Dr. Karl Thomae GmbH, priority 1992, dated 1995)
Counter-ions that a name gives are not always drawn.

Experiments:
human thrombocytes = assay: Competitive binding of ^3 H-BIBU 52/test substance to human thrombocytes; conditions: human thrombocytes in plasma; ^3 H-BIBU 52 5 nM; ambient temperature, 20 minutes
Procedure: 1. Competitive binding of ^3 H-BIBU 52/test substance to human thrombocytes: […] Case 5/1093-FL), which replaces the ^125 I fibrinogen ligand known from the literature and various concentrations of the substance to be tested. The free and bound ligand is separated by centrifuging and quantified by scintillation counting. The inhibition of ^3 H-BIBU 52 binding by the test substance is determined from the measurements obtained. In order to do this, donor blood is taken from an anticubital vein and anticoagulated with trisodium citrate (final concentration 13 mM). The blood is centrifuged for 10 minutes at 170×g and the supernatant platelet-rich plasma (PRP) is removed. The remaining blood is vigorously centrifuged once more in order to obtain plasma. The PRP is diluted 1:10 with autologous plasma. 750 μl are incubated with 50 μl of physiological saline solution, 100 μl of test substance solution, 50 μl of ^14 C-sucrose (3,700 Bq) and 50 μl of ^3 H-BIBU 52 (final concentration: 5 nM) at ambient temperature for 20 minutes. In order to measure the non-specific binding, 5μl of BIBU 52 (final concentration: 30 μM) are used instead of the test substance. The samples are centrifuged for 20 seconds at 10,000×g and the supernatant is poured off. 100 μl thereof are measured in order to determine the free ligand. The pellet is dissolved in 500 μl of 0.2N NaOH, 450 μl are mixed with 2 ml of scintillator and 25 μl of 5N HCl and measured. The residual plasma remaining in the pellet is determined from the ^14 C-content and the bound ligand is determined from the ^3 H-measurement. After the non-specific binding has been deducted, the pellet activity is plotted against the concentration of the test substance and the concentration for 50% inhibition of binding is determined. 2. Antithrombotic activity

platelet aggregation = assay: Inhibition of platelet aggregation (collagen-induced, Born and Cross, platelet-rich plasma of healthy volunteers); type: cell-based; conditions: 10 minutes preincubation at 37° C
Procedure: In order to do this, donor blood is taken from an anticubital vein and anticoagulated with trisodium citrate (final concentration 13 mM). The blood is centrifuged for 10 minutes at 170×g and the supernatant platelet-rich plasma (PRP) is removed. The remaining blood is vigorously centrifuged once more in order to obtain plasma. The PRP is diluted 1:10 with autologous plasma. 750 μl are incubated with 50 μl of physiological saline solution, 100 μl of test substance solution, 50 μl of ^14 C-sucrose (3,700 Bq) and 50 μl of ^3 H-BIBU 52 (final concentration: 5 nM) at ambient temperature for 20 minutes. In order to measure the non-specific binding, 5μl of BIBU 52 (final concentration: 30 μM) are used instead of the test substance. The samples are centrifuged for 20 seconds at 10,000×g and the supernatant is poured off. 100 μl thereof are measured in order to determine the free ligand. The pellet is dissolved in 500 μl of 0.2N NaOH, 450 μl are mixed with 2 ml of scintillator and 25 μl of 5N HCl and measured. The residual plasma remaining in the pellet is determined from the ^14 C-content and the bound ligand is determined from the ^3 H-measurement. After the non-specific binding has been deducted, the pellet activity is plotted against the concentration of the test substance and the concentration for 50% inhibition of binding is determined. 2. Antithrombotic activity The thrombocyte aggregation is measured using the method of Born and Cross (J. Physiol. 170: 397 (1964)) in platelet-rich plasma taken from healthy volunteers. To inhibit coagulation the blood is mixed with 3.14% sodium citrate in a volume ratio of 1:10. The pattern of the decrease in optical density of the platelet suspension is photometrically measured and recorded after the addition of the aggregation-triggering substance. The rate of aggregation is determined from the angle of inclination of the density curve. The point on the curve where there is maximum light transmittance is used to calculate the optical density. The concentration of collagen used is as small as possible but sufficient to produce an irreversible reaction curve. Standard commercial collagen produced by Hormonchemie of Munich is used. Before the addition of the collagen the plasma is incubated for 10 minutes with the substance at 37° C. From the concentration/activity curve an EC50 is determined, which describes the concentration giving a 50% change in the optical density in terms of the inhibition of aggregation.

Row | IC50 (human thrombocytes) [nM] | Compound | EC50 (platelet aggregation; Homo sapiens, Platelet) [nM] | EC50 (platelet aggregation; human platelet-rich plasma) [nM]
1 | 18 | CN(C(=O)N1CCN(c2ccc(C(=N)N)cc2)CC1)[C@H]1CC[C@H](C(=O)O)CC1 [2(1), 1-(4-amidinophenyl)-4-[N-(trans-4-carboxycyclohexyl)-N-methyl-aminocarbonyl]-piperazine-dihydrochloride] | 40 | –
2 | 9.1 | N=C(N)c1ccc(N2CCC(C(=O)N(CCc3ccccc3)[C@H]3CC[C@H](C(=O)O)CC3)CC2)cc1 [3(24), 1-(4-amidinophenyl)-4-[N-(trans-4-carboxycyclohexyl)-N-(2-phenylethyl)-aminocarbonyl]-piperidine] | 110 | –
3 | 230 | NCc1ccc(C2CCN(C(=O)N[C@H]3CC[C@H](C(=O)O)CC3)CC2)cc1 [2(11), 4-(4-aminomethylphenyl)-1-[N-(trans-4-carboxycyclohexyl)-aminocarbonyl]-piperidine-hydrochloride] | 380 | –
4 | 5.7 | N=C(N)c1ccc(N2CCC(C(=O)N[C@H]3CC[C@H](C(=O)O)CC3)CC2)cc1 [3(15), 1-(4-amidinophenyl)-4-[N-(trans-4-carboxycyclo-hexyl)-aminocarbonyl]-piperidine] | 30 | –
5 | 310 | NCc1ccc(N2CCN(C(=O)N[C@H]3CC[C@H](C(=O)O)CC3)CC2)nc1 [2(22), 1-(5-aminomethylpyrid-2-yl)-4-[N-(trans-4-carboxycyclohexyl)-aminocarbonyl]-piperazine-dihydrochloride] | 680 | –
6 | 2100 | CN(C(=O)N1CCN(c2ccc(C(=N)N)cc2)CC1)[C@H]1CC[C@H](C(=O)OC2CCCCC2)CC1 [7(2), 1-(4-amidinophenyl)-4-[N-[trans-4-(cyclohexyloxy-carbonyl)-cyclohexyl]-N-methyl-aminocarbonyl]-piperazine-dihydrochloride] | 360 | –
7 | 870 | COC(=O)[C@H]1CC[C@H](N(C)C(=O)N2CCN(c3ccc(C(=N)N)cc3)CC2)CC1 [1(1), 1-(4-amidinophenyl)-4-[N-[trans-4-(methoxycarbonyl)-cyclohexyl]-N-methyl-aminocarbonyl]-piperazine-hydrochloride] | 110 | –
8 | 1200 | CC(C)OC(=O)[C@H]1CC[C@H](NC(=O)N2CCN(c3ccc(C(=N)N)cc3)CC2)CC1 [Example 7, 1-(4-Amidinophenyl)-4-[N-[trans-4-(isopropoxycarbonyl)-cyclohexyl]-aminocarbonyl]-piperazine-dihydrochloride] | 280 | –
9 | 14 | N=C(N)c1ccc(C2CCN(C(=O)N[C@H]3CC[C@H](C(=O)O)CC3)CC2)cc1 [3(2), 4-(4-amidinophenyl)-1-[N-(trans-4-carboxycyclohexyl)-aminocarbonyl]-piperidine] | – | 100
10 | 1.5 | N=C(N)c1ccc(N2CCN(C(=O)N(Cc3ccccc3)[C@H]3CC[C@H](C(=O)O)CC3)CC2)cc1 [2(6), 1-(4-amidinophenyl)-4-[N-benzyl-N-(trans-4-carboxycyclohexyl)-aminocarbonyl]-piperazine-dihydrochloride] | 40 | –
11 | 5300 | COC(=O)[C@H]1CC[C@H](NC(=O)N2CCN(c3ccc(CN)cc3)CC2)CC1 [Example 4, 1-(4-Aminomethylphenyl)-4-[N-[trans-4-(methoxycarbonyl)-cyclohexyl]-aminocarbonyl]-piperazine-hydrochloride] | 4300 | –
12 | 230 | N=C(NC(=O)OCc1ccccc1)c1ccc(N2CCN(C(=O)N[C@H]3CC[C@H](C(=O)O)CC3)CC2)cc1 [3(1), 1-[4-(N-benzyloxycarbonyl-amidino)-phenyl]-4-[N-(trans-4-carboxycyclohexyl)-aminocarbonyl]-piperazine] | 660 | –
13 | 100 | N=C(N)c1ccc(N2CCC(C(=O)N3CCC(CC(=O)O)CC3)CC2)nc1 [2(42), 1-(5-amidinopyrid-2-yl)-4-[4-(carboxymethyl)-piperidinocarbonyl]-piperidine-dihydrochloride] | 170 | –
